Results on two molecules are retold here after patent publication US9872912B2, “Method for treating pancreatic cancer” (CHINA MEDICAL UNIVERSITY, priority 2014, dated 2018).

Where “and” joins values, the source holds several entries; their conditions need not be identical. Equal entries are not always repeated.

In experiment [1] the test system is gene expression levels of NOR-1, Nurr1, and Nur77 in PACA-2. Nature of the experiment: RT-PCR of apoptosis-related gene expression, PACA-2. Type of experiment: cell-based, Human. The protocol:
(§1) In this experiment, pancreatic cancer cell lines, PANC-1 and PACA-2, were treated with 100 μg/ml Z-BP for 0, 1, 3, 6, or 24 hours, and then, analyzed by reverse transcriptase-polymerase chain reaction (RT-PCR) (FIG. 6A) to analyze the effects of Z-BP on the gene expression levels of NOR-1, Nurr1, and Nur77 in the pancreatic cancer cell line. In addition, pancreatic cancer cell lines, PANC-1 and PACA-2, were treated with different concentrations of Z-BP for 3 hours, and then, analyzed by RT-PCR (FIG. 6B). The Glyceraldehyde 3-phosphate dehydrogenase (GAPDH) was used as the control group.

Experiment [2] has as its system PANC-1. Briefly: MTT cell survival rate, PANC-1. Conditions: Homo sapiens, PANC-1, 24 hours, read-out: IC50 (concentration of 50% inhibition). Type of experiment: cell-based. As for the experimental part:
(§2) MTT (3-[4,5-dimethylthiahiazo-2-yl]-2,4-dipheny-tetrazolium bromide) was used to determine if the cell survival rate of different pancreatic cancer cell lines will be influenced when being treated with (Z)-butylidenephthalide. Human pancreatic cancer cell lines (3×10^3 cells/well), PANC-1 and PACA-2, were cultured in a 96-well micro-culture plate over night. Different concentrations of (Z)-butylidenephthalide (0 μg/ml, 10 μg/ml, 25 μg/ml, 50 μg/ml, 75 μg/ml, or 100 μg/ml) or (E)-butylidenephthalide (0 μg/ml, 50 μg/ml, 100 μg/ml, 200 μg/ml, 400 μg/ml, or 800 μg/ml), or 50 μM gemcitabine (a traditional medicine for treating pancreatic cancer, as a control group) were added into each well of the 96-well micro-culture plate along the inner wall, and cultured for 24 hours. The medium was removed, and then a medium containing 500 μg/ml MTT (200 μl) was added and cultured for 4 hours. The medium was removed, and then 200 μl of DMSO was added into the plate. The absorbance of the sample in each well was measured by a spectrophotometer at 570 nm wavelength. The data was calculated to determine the survival rate and IC50 (concentration of 50% inhibition) of each pancreatic cancer cell line treated with (Z)-butylidenephthalide and (E)-butylidenephthalide. The results are shown in FIG. 1A ((E)-butylidenephthalide) and FIG. 1B ((Z)-butylidenephthalide).

Experiment [3] deals with PACA-2. Briefly: MTT cell survival rate, PACA-2. The class given is cell-based. Conditions: Homo sapiens, PACA-2, 24 hours, read-out: IC50 (concentration of 50% inhibition). The protocol: as §2
Experiment [4] deals with Nur77 gene pathway-related and apoptosis-related proteins in PACA-2. Nature of the experiment: Western blotting of Nur77 pathway-related and apoptosis-related proteins in PACA-2. The class given is cell-based, Human. As for the experimental part:
Human pancreatic cancer cell line, PACA-2, […], and then the expression levels of the Nur77 gene involved pathway-related proteins were analyzed by Western blotting, including Pan-PKC, AKT, ERK, and JNK (FIG. 8A). In addition, the expression levels of apoptosis-related proteins were also analyzed, including poly(ADP-ribose) polymerase (PARP), cleaved poly(ADP-ribose) polymerase (cPARP), caspase-3 (FIG. 8B). β-actin was used as the control group.
Background: In western blotting, separated proteins are transferred to a membrane and probed.

Experiment [5] deals with PACA-2. Briefly: Micro RNA interference test, cellular survival rate of PACA-2. Conditions: PACA-2, 133 μM Z-BP. Type of experiment: cell-based, human. The protocol: Human pancreatic cancer cell lines, PACA-2, was cultured with p(CPP-SA)-Z-BP comprising 0 w % (as a control group), 17.5 w %, or 25 w % (Z)-butylidenephthalide, respectively, for 24 hours, and then the tumor cell morphology and cellular survival rate were observed.
In addition, the human pancreatic cancer cell line, PACA-2, was treated with 10 nM or 50 nM of Nurr1 micro RNA, and then treated with 133 μM Z-BP. Then, the cellular survival rate was observed using the same method as described in Example 4.

In experiment [6] the test system is gene expression levels of NOR-1, Nurr1, and Nur77 in PANC-1. Briefly: RT-PCR of apoptosis-related gene expression, PANC-1. Type of experiment: cell-based, Human. The protocol: as §1
Experiment [7] concerns Nurr1 RNA in PACA-2. Nature of the experiment: Micro RNA interference test, RT-PCR of Nurr1 RNA in PACA-2. The class given is cell-based, human. Conditions: PACA-2, 133 μM Z-BP. As for the experimental part: The RNA expression of Nurr1 in the human pancreatic cancer cell line, PACA-2, was inhibited by Micro RNA interference technology. The cells were treated with 133 μM Z-BP. Then, the cells were analyzed by RT-PCR to detect the changes in the expression of Nurr1 RNA in the cells. As the results shown in FIG. 7A, when PACA-2 cells were treated with 50 nM Nurr1 micro RNA, about 50% of the Nurr1 induced by Z-BP was inhibited.

Where [8] appears, read: PACA-2, 100 μg/ml Z-BP, 1 to 3 hours.
Where [9] appears, read: PACA-2, Z-BP for 24 hours or 48 hours.
[10] abbreviates: PANC-1, 100 μg/ml Z-BP, 1 to 3 hours.

On to `CCC/C=C1\OC(=O)c2ccccc21` [(Z)-butylidenephthalide], for which the “mRNA expression level of NOR-1” value in experiment [1] (setting [8]) and in experiment [6] (setting [10]) was “increased” each time. Besides, the “mRNA expression level of Nurr1” value in experiment [1] (setting [8]) was “increased”; in experiment [1] (PACA-2, different concentrations of Z-BP, 3 hours) it was “increased”; in experiment [6] (setting [10]), “increased”; in experiment [6] (PANC-1, different concentrations of Z-BP, 3 hours), “increased”. The IC50 in experiment [2] is ~45 µg/mL and ~234 µM; in experiment [3], ~25 µg/mL and ~133 µM. The “expression level of phospho-AKT (Pi-AKT)” value in experiment [4] (PACA-2, Z-BP for 180 minutes) is recorded as “increased”. Also, the “expression level of phospho-JNK (Pi-SAPK/JNK)” value in experiment [4] (PACA-2, Z-BP for 180 minutes) is recorded as “increased”. In experiment [4] (setting [9]), the “expression level of PARP” value was “increased”. Also, in experiment [4] (setting [9]), the “expression level of cPARP” value is on record as “increased”. Besides, the “expression level of caspase-3” value in experiment [4] (setting [9]) is reported as “increased”. Besides, in experiment [5], the “cellular survival rate of PACA-2 cells” value was “reduce the cellular survival rate”. The “expression of Nurr1” value in experiment [7] is recorded as “increase the expression of Nurr1”.

For `CCC/C=C1/OC(=O)c2ccccc21` [(E)-butylidenephthalide, reference compound], the IC50 is ~257 µg/mL and ~1.37 mM in experiment [2]; ~162 µg/mL and ~864 µM in experiment [3].
